From PubChem BioAssay AID2060485 (Molecular Pharmacology Branch, DTP, NCI, 2025)

System: A375 multi-cell spheroids with HUVEC/MSC, viability
Assay: Anticancer human tumor A375 cell line growth inhibition [GQUAD];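 also: spheroids exposed to compounds for seven days before readout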
Conditions: for IC50: curve of first compound; for viability, T/C: stronger effect = lower value
In short: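 Viability of tumor cells grown as complex spheroids with endothelial and stromal cells, exposed to drug combinations. Top concentration at or near clinical Cmax (else 10 microM), diluted in half-log increments.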

[1] = second compound 0.0316 µM, first compound 0.0316 µM
[2] = second compound 0.0316 µM, first compound 0.1 µM
[3] = second compound 0.0316 µM, first compound 0.316 µM
[4] = second compound 0.0316 µM, first compound 1 µM
[5] = second compound 0.0316 µM, first compound 3.16 µM
[6] = second compound 0.0316 µM, first compound 10 µM
[7] = second compound 0.1 µM, first compound 0.0316 µM
[8] = second compound 0.1 µM, first compound 0.1 µM
[9] = second compound 0.1 µM, first compound 0.316 µM
[10] = second compound 0.1 µM, first compound 1 µM
[11] = second compound 0.1 µM, first compound 3.16 µM
[12] = second compound 0.1 µM, first compound 10 µM
[13] = second compound 0.316 µM, first compound 0.0316 µM
[14] = second compound 0.316 µM, first compound 0.1 µM
[15] = second compound 0.316 µM, first compound 0.316 µM
[16] = second compound 0.316 µM, first compound 1 µM
[17] = second compound 0.316 µM, first compound 3.16 µM
[18] = second compound 0.316 µM, first compound 10 µM
[19] = second compound 1 µM, first compound 0.0316 µM
[20] = second compound 1 µM, first compound 0.1 µM
[21] = second compound 1 µM, first compound 0.316 µM
[22] = second compound 1 µM, first compound 1 µM
[23] = second compound 1 µM, first compound 3.16 µM
[24] = second compound 1 µM, first compound 10 µM
[25] = second compound 3.16 µM, first compound 0.0316 µM
[26] = second compound 3.16 µM, first compound 0.1 µM
[27] = second compound 3.16 µM, first compound 0.316 µM
[28] = second compound 3.16 µM, first compound 1 µM
[29] = second compound 3.16 µM, first compound 3.16 µM
[30] = second compound 3.16 µM, first compound 10 µM
[31] = second compound 10 µM, first compound 0.0316 µM
[32] = second compound 10 µM, first compound 0.1 µM
[33] = second compound 10 µM, first compound 0.316 µM
[34] = second compound 10 µM, first compound 1 µM
[35] = second compound 10 µM, first compound 3.16 µM
[36] = second compound 10 µM, first compound 10 µM
[37] = second compound 0.0316 µM, first compound 0.000999 µM
[38] = second compound 0.0316 µM, first compound 0.00316 µM
[39] = second compound 0.0316 µM, first compound 0.00999 µM
[40] = second compound 0.0316 µM, first compound 0.0999 µM
[41] = second compound 0.1 µM, first compound 0.000999 µM
[42] = second compound 0.1 µM, first compound 0.00316 µM
[43] = second compound 0.1 µM, first compound 0.00999 µM
[44] = second compound 0.1 µM, first compound 0.0999 µM
[45] = second compound 0.316 µM, first compound 0.000999 µM
[46] = second compound 0.316 µM, first compound 0.00316 µM
[47] = second compound 0.316 µM, first compound 0.00999 µM
[48] = second compound 0.316 µM, first compound 0.0999 µM
[49] = second compound 1 µM, first compound 0.000999 µM
[50] = second compound 1 µM, first compound 0.00316 µM
[51] = second compound 1 µM, first compound 0.00999 µM
[52] = second compound 1 µM, first compound 0.0999 µM
[53] = second compound 3.16 µM, first compound 0.000999 µM
[54] = second compound 3.16 µM, first compound 0.00316 µM
[55] = second compound 3.16 µM, first compound 0.00999 µM
[56] = second compound 3.16 µM, first compound 0.0999 µM
[57] = second compound 10 µM, first compound 0.000999 µM
[58] = second compound 10 µM, first compound 0.00316 µM
[59] = second compound 10 µM, first compound 0.00999 µM
[60] = second compound 10 µM, first compound 0.0999 µM

CC1COCCN1c1cc(C2(S(C)(=N)=O)CC2)nc(-c2ccnc3[nH]ccc23)n1 (stereo not drawn) + Cc1[nH]c2ccc(F)cc2c1-c1nc2c3cccnc3c3ncccc3c2[nH]1
IC50 (second compound 0.0316 µM): 7110 nM | IC50 (second compound 0.1 µM): 8020 nM | IC50 (second compound 0.316 µM): 9010 nM | IC50 (second compound 1 µM): 7960 nM | IC50 (second compound 3.16 µM): 1300 nM | IC50 (second compound 10 µM): 2110 nM | viability, T/C [1]: 105% | viability, T/C [2]: 107% | viability, T/C [3]: 99.4% | viability, T/C [4]: 92% | viability, T/C [5]: 64.5% | viability, T/C [6]: 43.9% | viability, T/C [7]: 113% | viability, T/C [8]: 106% | viability, T/C [9]: 107% | viability, T/C [10]: 98.2% | viability, T/C [11]: 74.4% | viability, T/C [12]: 44.2% | viability, T/C [13]: 106% | viability, T/C [14]: 105% | viability, T/C [15]: 112% | viability, T/C [16]: 109% | viability, T/C [17]: 78.7% | viability, T/C [18]: 47.2% | viability, T/C [19]: 108% | viability, T/C [20]: 109% | viability, T/C [21]: 115% | viability, T/C [22]: 112% | viability, T/C [23]: 82% | viability, T/C [24]: 42% | viability, T/C [25]: 107% | viability, T/C [26]: 88.7% | viability, T/C [27]: 83.3% | viability, T/C [28]: 57% | viability, T/C [29]: 27.8% | viability, T/C [30]: 12.9% | viability, T/C [31]: 94.5% | viability, T/C [32]: 107% | viability, T/C [33]: 104% | viability, T/C [34]: 74.9% | viability, T/C [35]: 36.9% | viability, T/C [36]: 15.4%

CCc1c2c(nc3ccc(O)cc13)-c1cc3c(c(=O)n1C2)COC(=O)[C@]3(O)CC + Cc1[nH]c2ccc(F)cc2c1-c1nc2c3cccnc3c3ncccc3c2[nH]1
IC50 (second compound 0.0316 µM): < 0.999 nM | IC50 (second compound 0.1 µM): < 0.999 nM | IC50 (second compound 0.316 µM): < 0.999 nM | IC50 (second compound 1 µM): < 0.999 nM | IC50 (second compound 3.16 µM): < 0.999 nM | IC50 (second compound 10 µM): < 0.999 nM | viability, T/C [37]: 46% | viability, T/C [38]: 20% | viability, T/C [39]: 16.8% | viability, T/C [1]: 19.7% | viability, T/C [40]: 4.81% | viability, T/C [3]: 0.52% | viability, T/C [41]: 50.3% | viability, T/C [42]: 20.4% | viability, T/C [43]: 14.7% | viability, T/C [7]: 16.9% | viability, T/C [44]: 5.44% | viability, T/C [9]: 0.54% | viability, T/C [45]: 47.8% | viability, T/C [46]: 18.3% | viability, T/C [47]: 15.2% | viability, T/C [13]: 19.5% | viability, T/C [48]: 5.75% | viability, T/C [15]: 0.54% | viability, T/C [49]: 41.1% | viability, T/C [50]: 20.4% | viability, T/C [51]: 18.4% | viability, T/C [19]: 16.4% | viability, T/C [52]: 5.26% | viability, T/C [21]: 0.53% | viability, T/C [53]: 32% | viability, T/C [54]: 20.9% | viability, T/C [55]: 17.6% | viability, T/C [25]: 11% | viability, T/C [56]: 0.47% | viability, T/C [27]: 0.17% | viability, T/C [57]: 39.4% | viability, T/C [58]: 17.6% | viability, T/C [59]: 17.1% | viability, T/C [31]: 14.1% | viability, T/C [60]: 1.7% | viability, T/C [33]: 0.25%

Cc1cccc(N(C)C(=O)C2C(O)CCN2c2nc(C)cc(C(F)(F)F)c2C#N)c1 (stereo not drawn) + Cc1[nH]c2ccc(F)cc2c1-c1nc2c3cccnc3c3ncccc3c2[nH]1
IC50 (second compound 0.0316 µM): > 10000 nM | IC50 (second compound 0.1 µM): > 10000 nM | IC50 (second compound 0.316 µM): > 10000 nM | IC50 (second compound 1 µM): > 10000 nM | IC50 (second compound 3.16 µM): > 10000 nM | IC50 (second compound 10 µM): > 10000 nM | viability, T/C [1]: 102% | viability, T/C [2]: 102% | viability, T/C [3]: 94.8% | viability, T/C [4]: 98.6% | viability, T/C [5]: 95.5% | viability, T/C [6]: 95.2% | viability, T/C [7]: 106% | viability, T/C [8]: 94.5% | viability, T/C [9]: 105% | viability, T/C [10]: 108% | viability, T/C [11]: 104% | viability, T/C [12]: 103% | viability, T/C [13]: 98.1% | viability, T/C [14]: 100% | viability, T/C [15]: 93.5% | viability, T/C [16]: 111% | viability, T/C [17]: 111% | viability, T/C [18]: 107% | viability, T/C [19]: 95.7% | viability, T/C [20]: 101% | viability, T/C [21]: 106% | viability, T/C [22]: 109% | viability, T/C [23]: 103% | viability, T/C [24]: 105% | viability, T/C [25]: 80% | viability, T/C [26]: 90.2% | viability, T/C [27]: 94.7% | viability, T/C [28]: 84.2% | viability, T/C [29]: 89.5% | viability, T/C [30]: 79.4% | viability, T/C [31]: 106% | viability, T/C [32]: 100% | viability, T/C [33]: 112% | viability, T/C [34]: 106% | viability, T/C [35]: 97.6% | viability, T/C [36]: 91.7%

Cn1ncnc1[C@H]1c2n[nH]c(=O)c3cc(F)cc(c23)N[C@@H]1c1ccc(F)cc1 + Cc1[nH]c2ccc(F)cc2c1-c1nc2c3cccnc3c3ncccc3c2[nH]1
IC50 (second compound 0.0316 µM): > 316 nM | IC50 (second compound 0.1 µM): > 316 nM | IC50 (second compound 0.316 µM): > 316 nM | IC50 (second compound 1 µM): > 316 nM | IC50 (second compound 3.16 µM): > 316 nM | IC50 (second compound 10 µM): > 316 nM | viability, T/C [37]: 106% | viability, T/C [38]: 98.1% | viability, T/C [39]: 108% | viability, T/C [1]: 106% | viability, T/C [40]: 104% | viability, T/C [3]: 97.4% | viability, T/C [41]: 96.3% | viability, T/C [42]: 97.5% | viability, T/C [43]: 102% | viability, T/C [7]: 103% | viability, T/C [44]: 125% | viability, T/C [9]: 114% | viability, T/C [45]: 108% | viability, T/C [46]: 105% | viability, T/C [47]: 106% | viability, T/C [13]: 112% | viability, T/C [48]: 131% | viability, T/C [15]: 121% | viability, T/C [49]: 100% | viability, T/C [50]: 98% | viability, T/C [51]: 115% | viability, T/C [19]: 137% | viability, T/C [52]: 138% | viability, T/C [21]: 116% | viability, T/C [53]: 83.7% | viability, T/C [54]: 93.6% | viability, T/C [55]: 92.3% | viability, T/C [25]: 78.3% | viability, T/C [56]: 80.7% | viability, T/C [27]: 72% | viability, T/C [57]: 106% | viability, T/C [58]: 95.7% | viability, T/C [59]: 112% | viability, T/C [31]: 101% | viability, T/C [60]: 96.8% | viability, T/C [33]: 90.9%
